Data from patent US20100105629A1, “N-Substituted Peptidomimetic Inhibitors of Dipeptidylpeptidase IV” (priority 2007, published 2010).
Where two headings read alike, the source gives them in different places.

Molecular target: T1, Dipeptidyl peptidase IV (Homo sapiens, UniProt P27487)
T1 construct: Dipeptidyl peptidase IV was purified from human placenta; from tissue; host or cells: human placenta
Assay: DPP IV inhibition assay (chromogenic substrate Ala-Pro-p-nitroanalide)
Type: biochemical
Details: Xaa-N(Methyl)-boroGly series; for IC50: 10 min incubation with enzyme, assay 25° C.; for Cyclization Index (CI): ratio of the IC50 at pH 8 and the IC50 at pH 2
Experimental: Dipeptidyl peptidase IV was purified from human placenta. Assays were performed at room temperature (25° C.) in 100 mM HEPES, pH 8.0, 0.14 M NaCl with the chromogenic substrate Ala-Pro-p-nitroanalide (Bachem) using a Molecular Devices SPECTRAmax 340PC^384 microtiter plate reader Inhibitor stocks (1 mg/mL) were prepared in 0.01 N HCl solution for pH 2.0 and in pH 8.0 HEPES buffer for pH 8.0. Both stocks were equilibrated at corresponding pH overnight at room temperature. The 1:10 dilution of inhibitor stocks was done with 0.01 N HCl for pH 2.0 and with pH 8.0 HEPES buffer for pH 8.0 immediately preceding the enzymatic reactions. Enzymatic reactions were carried out by incubating 250 μL of approximately 0.35 nM DPP IV with 30 μL of various inhibitor concentrations (ranging between 10^−3 and 10^−10 M) for 10 minutes before addition of 30 μL of 300 μM substrate. The absorbance at 410 nm was measured 30 minutes after addition of the substrate. Assays and their corresponding measurements were performed in triplicate. The negative control was prepared exactly the same as above, except that 30 μL of 0.01 N HCl was added instead of inhibitor solutions.
After a 10 minute incubation with the enzyme before addition of the substrate. The IC50 values were determined by fitting the data to a sigmoidal dose-response curve using non-linear regression in Prism 3.0 (Graph Pad).

[1] = inhibitor stock equilibrated overnight at pH 2.0 (0.01 N HCl), HEPES pH 8.0, read-out: IC50 (pH 2)
[2] = inhibitor stock equilibrated overnight at pH 8.0 (HEPES buffer), read-out: IC50 (pH 8)

T1 sequence (P27487 whole entry): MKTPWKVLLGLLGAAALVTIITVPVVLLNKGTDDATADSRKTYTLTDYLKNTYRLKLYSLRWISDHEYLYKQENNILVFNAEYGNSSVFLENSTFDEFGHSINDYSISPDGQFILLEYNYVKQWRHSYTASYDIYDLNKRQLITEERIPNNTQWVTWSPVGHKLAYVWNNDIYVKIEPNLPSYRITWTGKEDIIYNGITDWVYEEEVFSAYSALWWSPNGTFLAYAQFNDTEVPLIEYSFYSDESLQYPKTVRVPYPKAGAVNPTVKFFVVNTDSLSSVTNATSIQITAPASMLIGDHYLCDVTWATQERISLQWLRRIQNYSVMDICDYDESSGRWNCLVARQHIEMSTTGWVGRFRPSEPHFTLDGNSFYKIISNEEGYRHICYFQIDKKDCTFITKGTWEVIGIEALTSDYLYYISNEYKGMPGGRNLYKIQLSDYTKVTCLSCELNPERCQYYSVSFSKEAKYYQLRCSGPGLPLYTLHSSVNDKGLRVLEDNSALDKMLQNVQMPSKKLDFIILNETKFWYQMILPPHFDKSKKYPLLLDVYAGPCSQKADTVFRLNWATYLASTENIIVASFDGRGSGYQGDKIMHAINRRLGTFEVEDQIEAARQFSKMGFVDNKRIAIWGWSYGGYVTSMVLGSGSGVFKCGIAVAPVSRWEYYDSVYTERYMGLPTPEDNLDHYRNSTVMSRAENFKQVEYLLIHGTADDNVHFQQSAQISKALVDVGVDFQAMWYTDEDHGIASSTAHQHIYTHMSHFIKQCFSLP

Compound	IC50 [1] [µM]	IC50 [2] [µM]	Cyclization Index (CI)
CSCC[C@H](N)C(=O)N(C)CB(O)O [Met, H-(S)-Met-boroSar]	< 0.4	< 25	<100
CN(CB(O)O)C(=O)CNC(C)(C)C [N-t-Butyl-Gly, H-N-(tBu)-Gly-boroSar]	< 0.15	< 0.15	<1

Further lines, results first:

IC50 [1] [µM]	IC50 [2] [µM]	Cyclization Index (CI)	Compound
< 75	< 1000	<5	H-(S)-N-(Me)-Ala-boroSar [N-Methyl-Ala]
< 0.7	< 50	<100	C[C@@H](O)[C@H](N)C(=O)N(C)CB(O)O [Thr, H-(S)-Thr-boroSar]
< 0.15	< 0.15	<1	CC(C)(C)C(N)C(=O)O (stereo not drawn) [t-Butyl-Gly]
